According to US20250213603A1, “PHARMACEUTICAL COMPOSITION FOR TREATING CANCER” (SAGA UNIVERSITY, priority 2021, published 2025):
Entries after “also recorded” stand apart in the source; their conditions may differ.

Legend:
[1] = system: EGFP+Ba/F3 BCR-ABLWT cells; assay: Survival extension in a BCR-ABL leukemia mouse model; type: in vivo, nude mice; conditions: 15 mM (249 mg/kg) FA-HP-β-CyD vs 150 mM (2086.5 mg/kg) HP-β-CyD, intraperitoneally twice a day for 20 days (FIG. 10)
Procedure: The effect due to FA-HP-β-CyD on the extension of survival in a BCR-ABL leukemia mouse model was evaluated as follows.
(§1) The FA-HP-β-CyD synthesized in Example 1 was used in this example.
EGFP+Ba/F3 BCR-ABLWT cells (1×10^6 cells) were transplanted into 6-week-old nude mice. Three days after transplantation, 200 μL vehicle (n=10), 150 mM (2086.5 mg/kg) HP-β-CyD (n=10), 15 mM (249 mg/kg) FA-HP-β-CyD (n=10), or […] (200 mg/kg) imatinib (n=10) was injected intraperitoneally twice a day for 20 days. The survival time was monitored daily. The survival data were analyzed using a log-rank nonparametric test and are reported as Kaplan-Meier survival curves.
(§2) Significant difference was determined as follows. That is, the data were analyzed using a two-sided Student's t-test without a comparison table. A value of P<0.05 was considered to indicate a significant difference.

[2] = system: BV173 cells (leukemia cells); assay: Ventricular invasion mouse model (leukemic invasion of the central nervous system); type: in vivo, BRJ mice
Procedure: Here, the effect of HP-β-CyD and FA-HP-β-CyD on leukemic central nervous system invasion was test by constructing a mouse model.
BRJ mice (female) were anesthetized (intraperitoneal administration (IP) of 100 μL of a triple anesthetic of medetomidine hydrochloride (0.75 mg/kg), mitazolam (4 mg/kg), and butorphanol tartrate (5 mg/kg)), and intrathecal transplantation was carried out, through the right coronal suture at a point 1 mm to the right of the center line defined by the sagittal suture, with a polyethylene stop tube-equipped microsyringe designed to inject BV173 cells (leukemia cells) precisely to a depth of 3 mm using a Hamilton syringe LT type needle tip style pst-3 and 25 gauge.
as §1
The doses were set at 30 mg/kg for HP-β-CyD and 3 mg/kg for FA-HP-β-CyD by referring to the dose of HP-β-CyD for a mouse model of the hereditary lipid storage disease Niemann-Pick disease type C (NPC) (Int. J. Mol. Sci. 2021, 22, 452. https://doi.org/10.3390/ijms22010452).
as §2

[3] = system: K562; assay: Induction of autophagosome formation (Cyto-ID Autophagy Detection Kit); type: cell-based; conditions: K562, 1 mM or 5 mM, 2 hours (FIG. 7)
Procedure: (§3) The induction of autophagosome formation by FA-HP-β-CyD was evaluated as follows.
(§4) Leukemia cell lines (K562 and BV173) were used in this example. The FA-HP-β-CyD synthesized in Example 1 was used.
(§5) The cells were cultured at a cell density of 4×10^5 cells/well on a 6-well plate and were treated for 2 hours with 1 mM or 5 mM HP-β-CyD or FA-HP-β-CyD, and the cells were incubated. This was followed by use of a Cyto-ID (registered trademark) Autophagy Detection Kit (Enzo Life Sciences, USA) and the use of an Axio Imager.M2 fluorescence microscope+an ApoTome.2 (Zeiss) for cell observation.

[4] = system: BV173; assay: as above; type: cell-based; conditions: BV173, 1 mM or 5 mM, 2 hours (FIG. 7)
Procedure: as §3, §4, §5

[5] = system: BV173; assay: Cellular uptake of TRITC-labelled CyD, confocal microscopy; type: cell-based; conditions: confocal microscopy (FIG. 6)
Procedure: The cellular uptake of FA-HP-β-CyD was evaluated as follows.
A leukemia cell line (BV173) was used in this example. The FA-HP-β-CyD synthesized in Example 1 was used.
10 mg HP-β-CyD or FA-HP-β-CyD and 1 mg of TRITC were dissolved in 400 μL of dimethyl sulfoxide (DMSO) with stirring for 24 hours and the solution was then gradually poured into acetone. A precipitate was obtained and was washed with water. This was freeze-dried to prepare TRITC-HP-β-CyD and TRITC-FA-HP-β-CyD.
The cells were then cultured at a cell density of 4×10e5 per well on a 6-well plate and were incubated with […], TRITC-HP-β-CyD, FA-HP-β-CyD, or HP-βCyD at different concentrations. A Zeiss LSM880 confocal microscope was used to observe the cells. Imaris (Zeiss) fluorescent image analysis software was used for analysis.
The Control refers to incubation at the same time as the other exposure groups, but without exposure to an agent. Cell localization was stained by DAPI and the cell membrane was stained with PlasMen Bright Green, and the cellular uptake of TRITC-FA-HP-β-CyD was evaluated using confocal microscopy.

[6] = system: K562; assay: Apoptosis, Annexin V/propidium iodide staining; type: cell-based; conditions: K562, 0.5, 1 and 1.5 mM, 48 hours (FIG. 5)
Procedure: (§6) The apoptosis of cells exposed to FA-HP-β-CyD was evaluated using Annexin V/propidium iodide (PI) staining as follows.
as §4
(§7) The apoptosis assay was performed by staining the cells with propidium iodide (PI) and Annexin V (BD Biosciences). The cells were cultured at a cell density of 4×10^5 cells/well on a 6-well plate and were incubated for 48 hours with FA-HP-β-CyD at different concentrations (0 mM (control: CT), 0.5 mM, 1 mM, and 1.5 mM). The cells were then stained with propidium iodide (PI) and Annexin V-APC (BD Biosciences) and analysis was performed using an FACSVerse flow cytometry system (BD Biosciences).

[7] = system: BV173; assay: Apoptosis, Annexin V/propidium iodide staining; type: cell-based; conditions: BV173, 0.5, 1 and 1.5 mM, 48 hours (FIG. 5)
Procedure: as §6, §4, §7

folic acid-appended hydroxypropyl-β-cyclodextrin [FA-HP-β-CyD]
survival time extension [1]: same survival time extension at one-tenth the amount of HP-β-CyD; also recorded: significant extension of the survival time
survival in two-time administration model compared with one-time administration model ([2]; FIG. 14 compared with FIG. 13, HP-β-CyD 30 mg/kg, FA-HP-β-CyD 3 mg/kg): survival was extended by one day
survival in comparison to the vehicle group and HP-β-CyD group ([2]; administered two times, first and second week after transplantation, FA-HP-β-CyD 3 mg/kg (FIG. 14)): extension of survival was confirmed
P versus the vehicle group (survival) ([2]; administered two times, first and second week, HP-β-CyD 30 mg/kg, FA-HP-β-CyD 3 mg/kg (FIG. 14)): 0.0472
survival in comparison to the vehicle group and HP-β-CyD group ([2]; single administration in the second week after ventricular transplantation, FA-HP-β-CyD 3 mg/kg (FIG. 13)): extension of survival was confirmed
P versus the vehicle group (survival) ([2]; single administration in the second week, HP-β-CyD 30 mg/kg, FA-HP-β-CyD 3 mg/kg (FIG. 13)): 0.0111
autophagosome membrane protein LC3B [3]: increase in a concentration dependent manner
autophagosome membrane protein LC3B [4]: increase in a concentration dependent manner
cellular uptake [5]: incorporated in large amounts into the cell
apoptosis induction [6]: induce apoptosis in a concentration dependent manner
apoptosis induction [7]: induce apoptosis in a concentration dependent manner
